One may read the IC50 as the midpoint of a concentration-inhibition curve.

Read-outs that look alike come from different tables or passages of the source.

The text below walks through data of US12636290B2, “BET inhibitors for modulating DUX4 expression in FSHD” (Saint Louis University, priority 2018, dated 2026).

In the experiment the test system is DUX4 expression (surrogate marker MBD3L2). Put plainly: Screening: qPCR analysis of DUX4 target gene MBD3L2 in differentiating MB200 FSHD2 muscle cells. Format: cell-based. The note with it: Homo sapiens, 40 hours, DUX4 expression inferred from surrogate marker MBD3L2 expression (qPCR, normalized to RPL30). The procedure:
Cells and Cell Culture. Primary human myoblast cell lines, immortalized by retroviral transduction of cyclin-dependent kinase 4 (CDK4) and human telomerase reverse transcriptase (hTERT) (Stadler, et al., 2011), were obtained from the Fields Center at the University of Rochester (world-wide-web at urmc.rochester.edu/fields-center.aspx). Immortalized myoblasts were grown in Ham's F-10 Nutrient Mix (Gibco, Waltham, MA, USA) supplemented with 20% HyClone Fetal Bovine Serum (GE Healthcare Life Sciences, Pittsburgh, PA, USA), 100 U/100 μg penicillin/streptomycin (Gibco), 10 ng/ml recombinant human fibroblast growth factor (Promega Corporation, Madison, WI, USA) and 1 μM dexamethasone (Sigma-Aldrich). Differentiation of myoblasts into myotubes was achieved by switching the fully confluent myoblast monolayer into Dulbecco's Modified Eagle Medium (DMEM) (Gibco) containing 1% horse serum (Gibco), 100 U/100 μg penicillin/streptomycin, 10 μg/ml insulin (Sigma-Aldrich) and 10 μg/ml transferrin (Sigma-Aldrich) (HS/IT media) or DMEM:F12 Nutrient Mixture (1:1, Gibco) supplemented with 2% KnockOut Serum Replacement (Gibco), 100 U/100 μg penicillin/streptomycin, 10 μg/ml insulin and 10 μg/ml transferrin (KSR media) for 2-6 days.
Screening: qPCR analysis of DUX4 target genes MBD3L2. For screening compounds, differentiating MB200 FSHD2 muscle cells were exposed to BET inhibitors at a variety of concentrations for 40 hours to determine the effects of the drugs on DUX4 expression. Cell lysates were prepared using Cells-to-Ct Bulk Lysis Reagents (Invitrogen, Waltham, MA, USA). Gene expression was measured by quantitative polymerase chain reaction (qPCR) was carried out on a QuantStudio 5 (Applied Biosystems, Waltham, MA, USA) using TaqMan Gene Expression Assays (Applied Biosystems) and TaqMan Fast Virus 1-Step Master Mix (Invitrogen). The relative expression levels of DUX4 target gene methyl-CpG binding domain protein 3 like 2 (MBD3L2), was normalized to that of the reference gene ribosomal protein L30 (RPL30), which was included in multiplex (two gene) PCR reactions. TaqMan Gene Expression Assay ID numbers: MBD3L2, Hs00544743_m1; RPL30, Hs00265497_m1. Data is expressed as relative expression with the expression in absence of inhibitors set to one.
Analysis of MBD3L2 expression in cultured FSHD2 cells. DUX4 mRNA is present in very low levels, even in differentiating FSHD2 myoblasts, so DUX4 target gene MBD3L2 was used as a surrogate marker of DUX4 expression. FSHD2 patient derived muscle cells were analyzed to determine whether BET inhibitors affect MBD3L2 expression, indicating a reduction in DUX4 expression.

With `Cn1cc(-c2ccc3cc(-c4ccc(OCCO)nc4)ccc3n2)c2cc[nH]c2c1=O` [SLU-2232, 4-{6-[6-(2-hydroxyethoxy)pyridin-3-yl]quinolin-2-yl}-6-methyl-1H-pyrrolo[2,3-c]pyridin-7(6H)-one], the IC50 is, setting by setting: (read-out: DUX4* MT FSHD2: IC50) 97 nM; (read-out: DUX4* MT FSHD2 IC50) 97 nM.
Regarding `C[C@@H]1C(=O)N(C)CCN1CCOc1ccc(C2CCN(c3ccc(-c4cn(C)c(=O)c5[nH]ccc45)cc3)CC2)cc1` [SLU-2212, (R)-4-{4-[4-(4-(2-(2,4-dimethyl-3-oxopiperazin-1-yl)ethoxy)phenyl)piperidin-1-yl]phenyl}-6-methyl-1H-pyrrolo[2,3-c]pyridin-7(6H)-one], the IC50 was found to be 86 nM (read-out: DUX4* MT FSHD2: IC50) and 86 nM (read-out: DUX4* MT FSHD2 IC50).
On to `Cn1cc(-c2ccc(N3CCC(c4ccc(OCCN5CCCCC5)cc4)CC3)nc2)c2cc[nH]c2c1=O` [SLU-2116, 6-methyl-4-{6-[4-(4-(2-(piperidin-1-yl)ethoxy)phenyl)piperidin-1-yl]pyridin-3-yl}-1H-pyrrolo[2,3-c]pyridin-7(6H)-one], for which the half-maximal inhibitory concentration (IC50) reads like this: (read-out: DUX4* MT FSHD2: IC50) 270 nM; (read-out: DUX4* MT FSHD2 IC50) 270 nM.
In the case of `C[C@@H]1C(=O)N(C)CCN1CCOCC(=O)N1CCC2(CC1)CCN(c1ccc(-c3cn(C)c(=O)c4[nH]ccc34)cn1)CC2` [SLU-2225, (R)-4-{6-[9-(2-(2-(2,4-dimethyl-3-oxopiperazin-1-yl)ethoxy)acetyl)-3,9-diazaspiro[5.5]undecan-3-yl]pyridin-3-yl}-6-methyl-1H-pyrrolo[2,3-c]pyridin-7(6H)-one], the IC50 (read-out: DUX4* MT FSHD2: IC50) came out at 35 nM and the IC50 (read-out: DUX4* MT FSHD2 IC50) is 35 nM.
Consider `C[C@@H]1C(=O)N(C)CCN1CCCOc1ccc(-c2ccc3cc(-c4cn(C)c(=O)c5[nH]ccc45)ccc3n2)cc1` [SLU-2299, (R)-4-{2-[4-(3-(2,4-dimethyl-3-oxopiperazin-1-yl)propoxy)phenyl]quinolin-6-yl}-6-methyl-1H-pyrrolo[2,3-c]pyridin-7(6H)-one], for which the IC50 by setting is: (read-out: DUX4* MT FSHD2: IC50) 3.4 nM; (read-out: DUX4* MT FSHD2 IC50) 3.4 nM.
Take `Cn1cc(-c2ccc3nc(-c4ccc(OCCN5CCC(F)(F)CC5)cc4)ccc3c2)c2cc[nH]c2c1=O` [SLU-2285, 4-{2-[4-(2-(4,4-difluoropiperidin-1-yl)ethoxy)phenyl]quinolin-6-yl}-6-methyl-1H-pyrrolo[2,3-c]pyridin-7(6H)-one]: the half-maximal inhibitory concentration (IC50) reads like this: (read-out: DUX4* MT FSHD2: IC50) 570 nM; (read-out: DUX4* MT FSHD2 IC50) 570 nM.
For the compound `C[C@@H]1C(=O)N(C)CCN1CCOc1ccc2cc(-c3cn(C)c(=O)c4[nH]ccc34)ccc2n1` [SLU-2348, (R)-4-{2-[2-(2,4-dimethyl-3-oxopiperazin-1-yl)ethoxy]quinolin-6-yl}-6-methyl-1H-pyrrolo[2,3-c]pyridin-7(6H)-one], the half-maximal inhibitory concentration (IC50) was 140 nM (read-out: DUX4* MT FSHD2: IC50) and 140 nM (read-out: DUX4* MT FSHD2 IC50).
As to `Cn1cc(-c2ccc3ncccc3c2)c2cc[nH]c2c1=O` [SLU-2298, 6-methyl-4-(quinolin-6-yl)-1H-pyrrolo[2,3-c]pyridin-7(6H)-one], the IC50 runs as follows: (read-out: DUX4* MT FSHD2: IC50) 113 nM; (read-out: DUX4* MT FSHD2 IC50) 113 nM.
In the case of `CCn1cc(-c2ccc3cc(-c4ccc(OCCN5CCN(C)C(=O)[C@H]5C)cc4)ccc3n2)c2cc[nH]c2c1=O` [SLU-2295, (R)-4-{6-[4-(2-(2,4-dimethyl-3-oxopiperazin-1-yl)ethoxy)phenyl]quinolin-2-yl}-6-ethyl-1H-pyrrolo[2,3-c]pyridin-7(6H)-one], the concentration for half-maximal inhibition (IC50) (read-out: DUX4* MT FSHD2: IC50) worked out at 51 nM and the IC50 (read-out: DUX4* MT FSHD2 IC50) amounted to 51 nM.
On to `C[C@@H]1C(=O)N(C)CCN1CCOc1ccc(-c2ccc3cc(-c4c[nH]c(=O)c5[nH]ccc45)ccc3n2)cc1` [SLU-2302, (R)-4-{2-[4-(2-(2,4-dimethyl-3-oxopiperazin-1-yl)ethoxy)phenyl]quinolin-6-yl}-1H-pyrrolo[2,3-c]pyridin-7(6H)-one], for which the IC50 (read-out: DUX4* MT FSHD2: IC50) was determined as 1800 nM and the 50% inhibitory concentration (IC50) (read-out: DUX4* MT FSHD2 IC50) was 1800 nM.
Take `Cn1cc(-c2ccc(N3CCC4(CCN(C(=O)CO)C4)CC3)nc2)c2cc[nH]c2c1=O` [SLU-2127]: the IC50 by setting is: (read-out: DUX4* MT FSHD2: IC50) 37 nM; (read-out: DUX4* MT FSHD2 IC50) 37 nM.
For `C=CCn1cc(-c2ccc3cc(-c4ccc(OCCN5CCN(C)C(=O)[C@H]5C)cc4)ccc3n2)c2cc[nH]c2c1=O` [SLU-2326, (R)-6-allyl-4-{6-[4-(2-(2,4-dimethyl-3-oxopiperazin-1-yl)ethoxy)phenyl]quinolin-2-yl}-1H-pyrrolo[2,3-c]pyridin-7(6H)-one], the IC50 runs as follows: (read-out: DUX4* MT FSHD2: IC50) 130 nM; (read-out: DUX4* MT FSHD2 IC50) 130 nM.
Take `CN1CCN(CCOc2ccc(-c3ccc4cc(-c5cn(C)c(=O)c6[nH]ccc56)ccc4n3)cc2)CC1` [SLU-2288]: the IC50 by setting is: (read-out: DUX4* MT FSHD2: IC50) 250 nM; (read-out: DUX4* MT FSHD2 IC50) 250 nM.
With `C[C@@H]1C(=O)N(C)CCN1CCCOc1ccc2cc(-c3cn(C)c(=O)c4[nH]ccc34)ccc2n1` [SLU-2347, (R)-4-{2-[3-(2,4-dimethyl-3-oxopiperazin-1-yl)propoxy]quinolin-6-yl}-6-methyl-1H-pyrrolo[2,3-c]pyridin-7(6H)-one], the IC50 (read-out: DUX4* MT FSHD2: IC50) was determined as 85 nM and the concentration for half-maximal inhibition (IC50) (read-out: DUX4* MT FSHD2 IC50) was 85 nM.
Turning to `CC(=O)N1C[C@@H](C)N(CCOc2ccc(C3CCN(c4ccc(-c5cn(C)c(=O)c6[nH]ccc56)cn4)CC3)cc2)[C@@H](C)C1` [SLU-2090, 4-{6-[4-(4-(2-((2R,6S)-4-acetyl-2,6-dimethylpiperazin-1-yl)ethoxy)phenyl)piperidin-1-yl]pyridin-3-yl}-6-methyl-1H-pyrrolo[2,3-c]pyridin-7(6H)-one], the IC50 runs as follows: (read-out: DUX4* MT FSHD2: IC50) 43 nM; (read-out: DUX4* MT FSHD2 IC50) 43 nM.
As for `C[C@@H]1CN(C)C(=O)CN1CCOc1ccc(-c2ccc3cc(-c4cn(C)c(=O)c5[nH]ccc45)ccc3n2)cc1` [SLU-2286, (R)-4-{2-[4-(2-(2,4-dimethyl-5-oxopiperazin-1-yl)ethoxy)phenyl]quinolin-6-yl}-6-methyl-1H-pyrrolo[2,3-c]pyridin-7(6H)-one], the 50% inhibitory concentration (IC50) is, setting by setting: (read-out: DUX4* MT FSHD2: IC50) 63 nM; (read-out: DUX4* MT FSHD2 IC50) 63 nM.
Turning to `CN1CCN(CCOc2ccc(-c3ccc4nc(-c5cn(C)c(=O)c6[nH]ccc56)ccc4c3)cc2)CC1=O` [SLU-2283, 6-methyl-4-{6-[4-(2-(4-methyl-3-oxopiperazin-1-yl)ethoxy)phenyl]quinolin-2-yl}-1H-pyrrolo[2,3-c]pyridin-7(6H)-one], the half-inhibitory concentration (IC50) is, setting by setting: (read-out: DUX4* MT FSHD2: IC50) 160 nM; (read-out: DUX4* MT FSHD2 IC50) 160 nM.
With `C[C@@H]1CCC[C@H](C)N1CCOc1ccc(-c2ccc3nc(-c4cn(C)c(=O)c5[nH]ccc45)ccc3c2)cc1` [SLU-2279, 4-{6-[4-(2-((2R,6S)-2,6-dimethylpiperidin-1-yl)ethoxy)phenyl]quinolin-2-yl}-6-methyl-1H-pyrrolo[2,3-c]pyridin-7(6H)-one], the 50% inhibitory concentration (IC50) runs as follows: (read-out: DUX4* MT FSHD2: IC50) 420 nM; (read-out: DUX4* MT FSHD2 IC50) 420 nM.
Consider `CN1CCN(CCOc2ccc(C3CCN(c4ccc(-c5cn(C)c(=O)c6[nH]ccc56)cn4)CC3)cc2)CC1` [SLU-2114, 6-methyl-4-{6-[4-(4-(2-(4-methylpiperazin-1-yl)ethoxy)phenyl)piperidin-1-yl]pyridin-3-yl}-1H-pyrrolo[2,3-c]pyridin-7(6H)-one], for which the IC50 runs as follows: (read-out: DUX4* MT FSHD2: IC50) 330 nM; (read-out: DUX4* MT FSHD2 IC50) 330 nM.
`CCN1CCN(CCOc2ccc(-c3ccc4cc(-c5cn(C)c(=O)c6[nH]ccc56)ccc4n3)cc2)CC1=O` [SLU-2243, 4-{2-[4-(2-(4-ethyl-3-oxopiperazin-1-yl)ethoxy)phenyl]quinolin-6-yl}-6-methyl-1H-pyrrolo[2,3-c]pyridin-7(6H)-one]: the IC50 came to 110 nM (read-out: DUX4* MT FSHD2: IC50) and 110 nM (read-out: DUX4* MT FSHD2 IC50).
